According to ChEMBL document CHEMBL4507284, “Data for DCP probe BI-1230” (2021):

Tests used:
[1] = target: Inhibitor of nuclear factor kappa-B kinase subunit beta (Homo sapiens) (UniProt O14920); conditions: Compound concentration 1000.0 nM
[2] = target: Phosphatidylinositol 4-kinase beta (Homo sapiens) (UniProt Q9UBF8); conditions: Compound concentration 1000.0 nM
[3] = target: Mitogen-activated protein kinase kinase kinase 10 (Homo sapiens) (UniProt Q02779); conditions: Compound concentration 1000.0 nM
[4] = target: Tyrosine-protein kinase TXK (Homo sapiens) (UniProt P42681); conditions: Compound concentration 1000.0 nM
[5] = target: Serine/threonine-protein kinase NLK (Homo sapiens) (UniProt Q9UBE8); conditions: Compound concentration 1000.0 nM
[6] = test system: Hepatocyte growth factor receptor (Homo sapiens), P08581 [Y1235D]; conditions: Compound concentration 1000.0 nM
[7] = target: Protein kinase C iota type (Homo sapiens) (UniProt P41743); conditions: Compound concentration 1000.0 nM
[8] = target: SNF-related serine/threonine-protein kinase (Homo sapiens) (UniProt Q9NRH2); conditions: Compound concentration 1000.0 nM
Sequence of SNF-related serine/threonine-protein kinase (Homo sapiens) (Q9NRH2 whole entry): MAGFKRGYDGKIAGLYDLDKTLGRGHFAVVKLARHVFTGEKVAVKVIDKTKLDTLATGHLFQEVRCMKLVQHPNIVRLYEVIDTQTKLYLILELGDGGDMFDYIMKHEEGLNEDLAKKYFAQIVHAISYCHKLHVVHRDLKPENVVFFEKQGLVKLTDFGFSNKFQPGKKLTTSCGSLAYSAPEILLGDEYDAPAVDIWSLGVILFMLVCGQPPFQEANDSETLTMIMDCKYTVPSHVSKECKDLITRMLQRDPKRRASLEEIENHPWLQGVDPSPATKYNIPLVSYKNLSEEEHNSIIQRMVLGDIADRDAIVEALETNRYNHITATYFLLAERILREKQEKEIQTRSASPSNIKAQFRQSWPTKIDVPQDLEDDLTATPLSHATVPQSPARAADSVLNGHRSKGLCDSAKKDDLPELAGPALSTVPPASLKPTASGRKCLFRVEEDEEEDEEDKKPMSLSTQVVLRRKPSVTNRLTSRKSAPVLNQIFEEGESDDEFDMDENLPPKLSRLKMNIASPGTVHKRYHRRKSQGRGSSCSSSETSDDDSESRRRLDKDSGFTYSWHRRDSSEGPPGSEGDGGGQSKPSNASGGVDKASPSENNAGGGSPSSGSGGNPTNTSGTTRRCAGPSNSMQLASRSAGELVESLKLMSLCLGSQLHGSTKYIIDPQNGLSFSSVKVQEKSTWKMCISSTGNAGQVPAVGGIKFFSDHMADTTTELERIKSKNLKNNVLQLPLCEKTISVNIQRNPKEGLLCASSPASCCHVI

[9] = target: Calcium/calmodulin-dependent protein kinase type 1D (Homo sapiens) (UniProt Q8IU85); conditions: Compound concentration 1000.0 nM
[10] = target: Non-receptor tyrosine-protein kinase TYK2 (Homo sapiens) (UniProt P29597); conditions: Compound concentration 1000.0 nM
[11] = target: Ribosomal protein S6 kinase alpha-6 (Homo sapiens) (UniProt Q9UK32); conditions: Compound concentration 1000.0 nM
[12] = test system: Phosphatidylinositol 4,5-bisphosphate 3-kinase catalytic subunit alpha isoform (Homo sapiens), P42336 [H1047L]; conditions: Compound concentration 1000.0 nM
[13] = test system: Tyrosine-protein kinase ABL1 (Homo sapiens), P00519 [F317I]; conditions: Compound concentration 1000.0 nM
[14] = target: Mitogen-activated protein kinase 12 (Homo sapiens) (UniProt P53778); conditions: Compound concentration 1000.0 nM
[15] = target: Cyclin-dependent kinase 18 (Homo sapiens) (UniProt Q07002); conditions: Compound concentration 1000.0 nM
[16] = target: Serine/threonine-protein kinase 32C (Homo sapiens) (UniProt Q86UX6); conditions: Compound concentration 1000.0 nM
[17] = test system: Phosphatidylinositol 4,5-bisphosphate 3-kinase catalytic subunit alpha isoform (Homo sapiens), P42336 [Q546K]; conditions: Compound concentration 1000.0 nM
[18] = target: Platelet-derived growth factor receptor alpha (Homo sapiens) (UniProt P16234); conditions: Compound concentration 1000.0 nM
[19] = target: 5'-AMP-activated protein kinase catalytic subunit alpha-2 (Homo sapiens) (UniProt P54646); conditions: Compound concentration 1000.0 nM
Sequence of 5'-AMP-activated protein kinase catalytic subunit alpha-2 (Homo sapiens) (P54646 whole entry, looked up): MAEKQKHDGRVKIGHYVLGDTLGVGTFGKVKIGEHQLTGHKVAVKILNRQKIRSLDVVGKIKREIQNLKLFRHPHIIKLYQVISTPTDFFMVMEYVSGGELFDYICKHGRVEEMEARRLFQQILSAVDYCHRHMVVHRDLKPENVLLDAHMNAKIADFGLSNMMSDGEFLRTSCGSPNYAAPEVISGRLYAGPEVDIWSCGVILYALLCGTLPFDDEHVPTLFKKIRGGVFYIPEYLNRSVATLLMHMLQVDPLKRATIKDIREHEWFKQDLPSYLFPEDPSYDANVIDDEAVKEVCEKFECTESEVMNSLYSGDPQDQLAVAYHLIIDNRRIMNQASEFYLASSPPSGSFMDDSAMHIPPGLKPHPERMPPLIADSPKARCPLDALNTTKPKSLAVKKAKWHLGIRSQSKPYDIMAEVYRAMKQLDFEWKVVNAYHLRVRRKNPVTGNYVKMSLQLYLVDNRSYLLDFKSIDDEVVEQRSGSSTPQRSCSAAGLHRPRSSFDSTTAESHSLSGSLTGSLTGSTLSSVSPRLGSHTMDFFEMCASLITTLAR

[20] = target: Tyrosine-protein kinase Lck (Homo sapiens) (UniProt P06239); conditions: Compound concentration 1000.0 nM
Sequence of Tyrosine-protein kinase Lck (Homo sapiens) (P06239 2-509 limits assumed): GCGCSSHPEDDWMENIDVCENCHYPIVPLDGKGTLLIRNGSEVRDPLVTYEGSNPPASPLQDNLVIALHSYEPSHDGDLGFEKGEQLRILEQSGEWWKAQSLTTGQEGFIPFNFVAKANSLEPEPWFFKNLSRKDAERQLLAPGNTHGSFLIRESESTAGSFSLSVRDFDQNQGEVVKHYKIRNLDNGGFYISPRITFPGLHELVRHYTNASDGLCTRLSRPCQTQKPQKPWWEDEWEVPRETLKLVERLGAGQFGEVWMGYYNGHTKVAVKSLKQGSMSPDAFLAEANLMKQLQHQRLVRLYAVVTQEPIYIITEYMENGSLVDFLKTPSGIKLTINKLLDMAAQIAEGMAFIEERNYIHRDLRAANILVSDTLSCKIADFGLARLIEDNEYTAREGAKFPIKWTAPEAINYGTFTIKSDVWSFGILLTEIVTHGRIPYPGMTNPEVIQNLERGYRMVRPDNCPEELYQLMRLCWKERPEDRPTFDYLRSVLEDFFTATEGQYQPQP

[21] = target: Serine/threonine-protein kinase 35 (Homo sapiens) (UniProt Q8TDR2); conditions: Compound concentration 1000.0 nM
[22] = target: Casein kinase I isoform gamma-2 (Homo sapiens) (UniProt P78368); conditions: Compound concentration 1000.0 nM
[23] = target: STE20/SPS1-related proline-alanine-rich protein kinase (Homo sapiens) (UniProt Q9UEW8); conditions: Compound concentration 1000.0 nM
[24] = target: Proto-oncogene tyrosine-protein kinase Src (Homo sapiens) (UniProt P12931); conditions: Compound concentration 1000.0 nM
[25] = target: Cyclin-dependent kinase 13 (Homo sapiens) (UniProt Q14004); conditions: Compound concentration 1000.0 nM
[26] = target: Vascular endothelial growth factor receptor 2 (Homo sapiens) (UniProt P35968); conditions: Compound concentration 1000.0 nM
[27] = target: Serine/threonine-protein kinase PAK 4 (Homo sapiens) (UniProt O96013); conditions: Compound concentration 1000.0 nM
[28] = target: Serine/threonine-protein kinase SIK2 (Homo sapiens) (UniProt Q9H0K1); conditions: Compound concentration 1000.0 nM
[29] = target: Tyrosine-protein kinase receptor UFO (Homo sapiens) (UniProt P30530); conditions: Compound concentration 1000.0 nM
[30] = target: Cyclin-dependent kinase 11B (Homo sapiens) (UniProt P21127); conditions: Compound concentration 1000.0 nM
[31] = target: TGF-beta receptor type-2 (Homo sapiens) (UniProt P37173); conditions: Compound concentration 1000.0 nM
[32] = target: Cyclin-dependent kinase 17 (Homo sapiens) (UniProt Q00537); conditions: Compound concentration 1000.0 nM
[33] = target: Mast/stem cell growth factor receptor Kit (Homo sapiens) (UniProt P10721); conditions: Compound concentration 1000.0 nM
Sequence of Mast/stem cell growth factor receptor Kit (Homo sapiens) (P10721 whole entry): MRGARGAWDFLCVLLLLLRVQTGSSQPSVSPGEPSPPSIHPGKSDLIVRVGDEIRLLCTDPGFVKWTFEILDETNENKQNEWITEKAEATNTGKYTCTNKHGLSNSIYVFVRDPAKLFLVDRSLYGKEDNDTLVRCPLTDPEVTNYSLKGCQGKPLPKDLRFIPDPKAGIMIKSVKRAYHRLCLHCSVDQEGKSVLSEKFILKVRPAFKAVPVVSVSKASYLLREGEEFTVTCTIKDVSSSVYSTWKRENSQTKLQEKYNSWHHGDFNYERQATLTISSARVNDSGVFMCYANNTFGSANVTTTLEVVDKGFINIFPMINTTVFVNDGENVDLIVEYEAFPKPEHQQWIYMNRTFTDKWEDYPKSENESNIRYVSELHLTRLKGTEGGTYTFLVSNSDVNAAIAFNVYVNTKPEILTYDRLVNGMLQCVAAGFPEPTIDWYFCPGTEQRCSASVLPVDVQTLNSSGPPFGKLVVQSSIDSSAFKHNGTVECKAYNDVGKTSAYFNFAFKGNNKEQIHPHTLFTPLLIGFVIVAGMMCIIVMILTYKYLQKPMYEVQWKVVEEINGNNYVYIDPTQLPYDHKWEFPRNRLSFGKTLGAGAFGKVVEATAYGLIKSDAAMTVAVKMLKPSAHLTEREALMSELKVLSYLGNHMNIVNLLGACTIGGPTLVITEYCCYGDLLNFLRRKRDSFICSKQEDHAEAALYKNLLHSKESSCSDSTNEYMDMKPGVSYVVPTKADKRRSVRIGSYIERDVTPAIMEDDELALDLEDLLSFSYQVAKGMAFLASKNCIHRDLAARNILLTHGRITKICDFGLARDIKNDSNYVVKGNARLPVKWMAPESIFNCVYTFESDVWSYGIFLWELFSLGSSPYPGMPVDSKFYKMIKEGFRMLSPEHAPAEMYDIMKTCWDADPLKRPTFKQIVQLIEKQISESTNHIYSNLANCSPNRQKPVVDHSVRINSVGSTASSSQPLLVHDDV

[34] = target: Phosphatidylinositol 3-kinase catalytic subunit type 3 (Homo sapiens) (UniProt Q8NEB9); conditions: Compound concentration 1000.0 nM
[35] = target: Cyclin-dependent kinase 4 (Homo sapiens) (UniProt P11802); conditions: Compound concentration 1000.0 nM
Sequence of Cyclin-dependent kinase 4 (Homo sapiens) (P11802 whole entry): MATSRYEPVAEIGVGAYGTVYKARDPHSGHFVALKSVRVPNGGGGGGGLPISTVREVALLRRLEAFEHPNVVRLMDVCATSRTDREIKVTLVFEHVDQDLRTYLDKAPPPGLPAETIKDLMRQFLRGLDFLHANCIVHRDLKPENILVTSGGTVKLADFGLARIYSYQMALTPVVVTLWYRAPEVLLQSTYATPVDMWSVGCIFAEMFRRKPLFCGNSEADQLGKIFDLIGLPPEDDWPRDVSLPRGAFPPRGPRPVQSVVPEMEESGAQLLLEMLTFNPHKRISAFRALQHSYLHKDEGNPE

[36] = target: D(1B) dopamine receptor (Homo sapiens) (UniProt P21918); conditions: Compound concentration 10.0 uM
[37] = target: Discoidin domain-containing receptor 2 (Homo sapiens) (UniProt Q16832); conditions: Compound concentration 1000.0 nM
[38] = target: Serine/threonine-protein kinase TAO3 (Homo sapiens) (UniProt Q9H2K8); conditions: Compound concentration 1000.0 nM
[39] = test system: Mast/stem cell growth factor receptor Kit (Homo sapiens), P10721 [D816H]; conditions: Compound concentration 1000.0 nM
Sequence of Mast/stem cell growth factor receptor Kit (Homo sapiens), P10721 [D816H] (P10721 whole entry D816H): as the sequence (P10721 whole entry) above, with D816H counted along it

[40] = target: Mitogen-activated protein kinase kinase kinase 14 (Homo sapiens) (UniProt Q99558); conditions: Compound concentration 1000.0 nM
[41] = target: Megakaryocyte-associated tyrosine-protein kinase (Homo sapiens) (UniProt P42679); conditions: Compound concentration 1000.0 nM
[42] = target: Receptor-interacting serine/threonine-protein kinase 2 (Homo sapiens) (UniProt O43353); conditions: Compound concentration 1000.0 nM
[43] = target: MAP/microtubule affinity-regulating kinase 3 (Homo sapiens) (UniProt P27448); conditions: Compound concentration 1000.0 nM
[44] = target: Mitogen-activated protein kinase 11 (Homo sapiens) (UniProt Q15759); conditions: Compound concentration 1000.0 nM
Sequence of Mitogen-activated protein kinase 11 (Homo sapiens) (Q15759 whole entry): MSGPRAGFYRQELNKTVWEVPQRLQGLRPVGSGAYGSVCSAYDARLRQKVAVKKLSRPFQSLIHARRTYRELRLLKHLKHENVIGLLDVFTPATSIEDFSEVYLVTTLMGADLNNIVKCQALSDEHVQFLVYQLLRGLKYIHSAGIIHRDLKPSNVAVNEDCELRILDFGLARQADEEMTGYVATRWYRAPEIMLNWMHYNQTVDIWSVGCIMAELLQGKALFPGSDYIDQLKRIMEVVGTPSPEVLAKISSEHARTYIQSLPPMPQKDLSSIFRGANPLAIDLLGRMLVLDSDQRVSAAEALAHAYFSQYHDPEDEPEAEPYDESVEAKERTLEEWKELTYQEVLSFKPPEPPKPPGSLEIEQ

[45] = target: Phosphatidylinositol 4-phosphate 5-kinase type-1 gamma (Homo sapiens) (UniProt O60331); conditions: Compound concentration 1000.0 nM
Sequence of Phosphatidylinositol 4-phosphate 5-kinase type-1 gamma (Homo sapiens) (O60331 whole entry): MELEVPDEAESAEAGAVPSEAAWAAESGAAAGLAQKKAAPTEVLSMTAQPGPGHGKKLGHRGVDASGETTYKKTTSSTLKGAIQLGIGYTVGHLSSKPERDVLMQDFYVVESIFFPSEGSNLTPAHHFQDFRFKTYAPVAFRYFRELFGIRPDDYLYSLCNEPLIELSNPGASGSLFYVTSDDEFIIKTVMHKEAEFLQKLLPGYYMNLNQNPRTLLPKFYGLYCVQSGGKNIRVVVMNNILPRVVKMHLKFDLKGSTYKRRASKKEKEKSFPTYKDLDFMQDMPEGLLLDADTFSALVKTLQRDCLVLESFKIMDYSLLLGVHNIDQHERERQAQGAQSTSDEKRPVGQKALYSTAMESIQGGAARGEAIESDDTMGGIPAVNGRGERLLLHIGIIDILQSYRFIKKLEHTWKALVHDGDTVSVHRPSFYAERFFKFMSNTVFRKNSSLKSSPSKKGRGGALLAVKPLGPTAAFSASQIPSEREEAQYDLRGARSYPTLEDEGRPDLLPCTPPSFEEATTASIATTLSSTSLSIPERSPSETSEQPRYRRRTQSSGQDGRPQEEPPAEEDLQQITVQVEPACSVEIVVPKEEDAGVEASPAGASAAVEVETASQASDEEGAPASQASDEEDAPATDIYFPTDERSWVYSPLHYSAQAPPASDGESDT

Sequence of Phosphatidylinositol 4-kinase beta (Homo sapiens) (Q9UBF8 2-816 limits assumed): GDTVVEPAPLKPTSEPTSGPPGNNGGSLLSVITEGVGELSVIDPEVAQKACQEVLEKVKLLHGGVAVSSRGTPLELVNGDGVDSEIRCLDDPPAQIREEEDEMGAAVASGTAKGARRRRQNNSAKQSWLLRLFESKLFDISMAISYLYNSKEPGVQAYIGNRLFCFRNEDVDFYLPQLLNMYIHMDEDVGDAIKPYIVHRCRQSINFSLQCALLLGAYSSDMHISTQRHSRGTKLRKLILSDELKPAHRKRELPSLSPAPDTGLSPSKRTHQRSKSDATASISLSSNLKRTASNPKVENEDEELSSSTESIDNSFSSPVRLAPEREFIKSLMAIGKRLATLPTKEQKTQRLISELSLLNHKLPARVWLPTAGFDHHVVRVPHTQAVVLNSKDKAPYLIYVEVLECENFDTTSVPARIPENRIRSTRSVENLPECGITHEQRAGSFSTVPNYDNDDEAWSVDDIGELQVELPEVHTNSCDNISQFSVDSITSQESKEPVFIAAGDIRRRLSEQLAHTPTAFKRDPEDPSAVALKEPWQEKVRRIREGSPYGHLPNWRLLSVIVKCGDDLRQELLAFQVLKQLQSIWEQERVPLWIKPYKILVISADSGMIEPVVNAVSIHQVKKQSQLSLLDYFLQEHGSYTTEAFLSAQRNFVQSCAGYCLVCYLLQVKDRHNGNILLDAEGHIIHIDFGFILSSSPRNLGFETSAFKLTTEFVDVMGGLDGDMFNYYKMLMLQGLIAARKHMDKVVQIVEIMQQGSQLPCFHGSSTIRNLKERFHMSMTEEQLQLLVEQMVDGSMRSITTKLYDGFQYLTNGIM

COc1ccc2c(O[C@@H]3C[C@H]4C(=O)N[C@]5(C(=O)O)CC5/C=C\CCCCC[C@H](NC(=O)OC5CCCC5)C(=O)N4C3)cc(-c3csc(NC(=O)C(C)C)n3)nc2c1C (stereo not given in full) [BI 1230]
inactive: residual activity [1] 83% | residual activity [2] 71% | residual activity [3] 93% | residual activity [4] 86% | residual activity [5] 99% | residual activity [6] 100% | residual activity [7] 96% | residual activity [8] 80% | residual activity [9] 100% | residual activity [10] 74% | residual activity [11] 100% | residual activity [12] 79% | residual activity [13] 76% | residual activity [14] 91% | residual activity [15] 100% | residual activity [16] 63% | residual activity [17] 70% | residual activity [18] 84% | residual activity [19] 87% | residual activity [20] 100% | residual activity [21] 100% | residual activity [22] 90% | residual activity [23] 100% | residual activity [24] 100% | residual activity [25] 77% | residual activity [26] 83% | residual activity [27] 99% | residual activity [28] 100% | residual activity [29] 97% | residual activity [30] 99% | residual activity [31] 93% | residual activity [32] 100% | residual activity [33] 100% | residual activity [34] 100% | residual activity [35] 74% | inhibition [36] 47.1% | residual activity [37] 88% | residual activity [38] 88% | residual activity [39] 86% | residual activity [40] 89% | residual activity [41] 50% | residual activity [42] 100% | residual activity [43] 95% | residual activity [44] 100% | residual activity [45] 100%

O=C(N[C@H]1CCCCC/C=C\C2C[C@@]2(C(=O)O)NC(=O)[C@@H]2C[C@@H](Oc3ccncc3)CN2C1=O)OC1CCCC1 (stereo not given in full) [BI 1675]
inactive: residual activity [1] 91% | residual activity [2] 81% | residual activity [3] 100% | residual activity [4] 87% | residual activity [5] 100% | residual activity [6] 81% | residual activity [7] 100% | residual activity [8] 97% | residual activity [9] 94% | residual activity [10] 99% | residual activity [11] 86% | residual activity [12] 100% | residual activity [13] 96% | residual activity [14] 100% | residual activity [15] 92% | residual activity [16] 100% | residual activity [17] 98% | residual activity [18] 99% | residual activity [19] 71% | residual activity [20] 100% | residual activity [21] 100% | residual activity [22] 63% | residual activity [23] 100% | residual activity [24] 100% | residual activity [25] 90% | residual activity [26] 100% | residual activity [27] 99% | residual activity [28] 100% | residual activity [29] 95% | residual activity [30] 100% | residual activity [31] 85% | residual activity [32] 89% | residual activity [33] 91% | residual activity [34] 100% | residual activity [35] 100% | inhibition [36] 11.3% | residual activity [37] 100% | residual activity [38] 100% | residual activity [39] 100% | residual activity [40] 100% | residual activity [42] 100% | residual activity [43] 100% | residual activity [44] 100% | residual activity [45] 100%
active: residual activity [41] 41%
